Data on 21 compounds can be found in ChEMBL document CHEMBL1144750, “Scaffold oriented synthesis. Part 2: Design, synthesis and biological evaluation of pyrimido-diazepines as receptor tyrosine kinase inhibitors” (Bioorg Med Chem Lett, 2008).

Test [1] deals with T1, Vascular endothelial growth factor receptor 2 (Homo sapiens, UniProt P35968). Put plainly: Inhibition of KDR in presence of 1 mM ATP.
Test [2] addresses Vascular endothelial growth factor receptor 2 (Mus musculus, UniProt P35918). Put plainly: Inhibition of VEGF-induced KDR phosphorylation in mouse 3T3 cells. The class given is cell-based, NIH3T3.
In test [3] the target is T2, Receptor-type tyrosine-protein kinase FLT3 (Homo sapiens, UniProt P36888).
T2 sequence (P36888 whole entry): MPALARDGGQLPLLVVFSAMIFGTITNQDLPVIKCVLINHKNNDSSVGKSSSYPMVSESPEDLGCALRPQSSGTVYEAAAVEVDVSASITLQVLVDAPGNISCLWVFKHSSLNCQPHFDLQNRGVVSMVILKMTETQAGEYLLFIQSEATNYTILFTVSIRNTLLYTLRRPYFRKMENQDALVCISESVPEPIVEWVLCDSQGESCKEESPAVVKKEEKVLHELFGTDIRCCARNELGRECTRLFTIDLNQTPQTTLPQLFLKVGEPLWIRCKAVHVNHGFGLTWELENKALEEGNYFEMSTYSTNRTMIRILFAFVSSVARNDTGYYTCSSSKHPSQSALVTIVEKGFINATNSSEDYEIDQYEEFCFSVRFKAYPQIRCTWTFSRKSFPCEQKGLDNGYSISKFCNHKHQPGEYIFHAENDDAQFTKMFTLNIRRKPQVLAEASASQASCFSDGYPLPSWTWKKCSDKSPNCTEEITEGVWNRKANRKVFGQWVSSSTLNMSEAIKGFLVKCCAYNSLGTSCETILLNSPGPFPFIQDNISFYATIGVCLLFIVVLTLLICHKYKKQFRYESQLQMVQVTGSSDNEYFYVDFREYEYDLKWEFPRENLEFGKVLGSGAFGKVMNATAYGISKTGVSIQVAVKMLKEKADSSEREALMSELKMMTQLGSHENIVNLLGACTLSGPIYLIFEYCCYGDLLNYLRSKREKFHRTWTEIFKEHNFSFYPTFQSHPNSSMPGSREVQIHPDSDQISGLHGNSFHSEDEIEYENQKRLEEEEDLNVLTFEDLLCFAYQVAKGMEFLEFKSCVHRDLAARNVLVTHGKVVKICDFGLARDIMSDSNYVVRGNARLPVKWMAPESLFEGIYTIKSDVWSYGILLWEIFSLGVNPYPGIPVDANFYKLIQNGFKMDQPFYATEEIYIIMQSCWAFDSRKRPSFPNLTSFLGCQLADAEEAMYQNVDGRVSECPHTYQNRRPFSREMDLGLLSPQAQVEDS
Put plainly: Inhibition of Flt3.

In test [4] the target is Mast/stem cell growth factor receptor Kit (Homo sapiens, UniProt P10721). Kind of test: Inhibition of cKit.
Test [5] deals with T1, Vascular endothelial growth factor receptor 2. Kind of test: Inhibition of KDR in presence of 10 uM ATP.
Test [6] deals with Serine/threonine-protein kinase PLK1 (Homo sapiens, UniProt P53350). Put plainly: Inhibition of Plk1.
The target in test [7] is Serine/threonine-protein kinase PAK 4 (Homo sapiens, UniProt O96013). Put plainly: Inhibition of Pak4.
Test [8] can be described thus: Inhibition of CK2.
The target of test [9] is RAC-alpha serine/threonine-protein kinase (Homo sapiens, UniProt P31749). Put plainly: Inhibition of Akt1.
The nature of test [10]: Inhibition of CK2 at 100 uM.

T1 sequence (P35968 whole entry): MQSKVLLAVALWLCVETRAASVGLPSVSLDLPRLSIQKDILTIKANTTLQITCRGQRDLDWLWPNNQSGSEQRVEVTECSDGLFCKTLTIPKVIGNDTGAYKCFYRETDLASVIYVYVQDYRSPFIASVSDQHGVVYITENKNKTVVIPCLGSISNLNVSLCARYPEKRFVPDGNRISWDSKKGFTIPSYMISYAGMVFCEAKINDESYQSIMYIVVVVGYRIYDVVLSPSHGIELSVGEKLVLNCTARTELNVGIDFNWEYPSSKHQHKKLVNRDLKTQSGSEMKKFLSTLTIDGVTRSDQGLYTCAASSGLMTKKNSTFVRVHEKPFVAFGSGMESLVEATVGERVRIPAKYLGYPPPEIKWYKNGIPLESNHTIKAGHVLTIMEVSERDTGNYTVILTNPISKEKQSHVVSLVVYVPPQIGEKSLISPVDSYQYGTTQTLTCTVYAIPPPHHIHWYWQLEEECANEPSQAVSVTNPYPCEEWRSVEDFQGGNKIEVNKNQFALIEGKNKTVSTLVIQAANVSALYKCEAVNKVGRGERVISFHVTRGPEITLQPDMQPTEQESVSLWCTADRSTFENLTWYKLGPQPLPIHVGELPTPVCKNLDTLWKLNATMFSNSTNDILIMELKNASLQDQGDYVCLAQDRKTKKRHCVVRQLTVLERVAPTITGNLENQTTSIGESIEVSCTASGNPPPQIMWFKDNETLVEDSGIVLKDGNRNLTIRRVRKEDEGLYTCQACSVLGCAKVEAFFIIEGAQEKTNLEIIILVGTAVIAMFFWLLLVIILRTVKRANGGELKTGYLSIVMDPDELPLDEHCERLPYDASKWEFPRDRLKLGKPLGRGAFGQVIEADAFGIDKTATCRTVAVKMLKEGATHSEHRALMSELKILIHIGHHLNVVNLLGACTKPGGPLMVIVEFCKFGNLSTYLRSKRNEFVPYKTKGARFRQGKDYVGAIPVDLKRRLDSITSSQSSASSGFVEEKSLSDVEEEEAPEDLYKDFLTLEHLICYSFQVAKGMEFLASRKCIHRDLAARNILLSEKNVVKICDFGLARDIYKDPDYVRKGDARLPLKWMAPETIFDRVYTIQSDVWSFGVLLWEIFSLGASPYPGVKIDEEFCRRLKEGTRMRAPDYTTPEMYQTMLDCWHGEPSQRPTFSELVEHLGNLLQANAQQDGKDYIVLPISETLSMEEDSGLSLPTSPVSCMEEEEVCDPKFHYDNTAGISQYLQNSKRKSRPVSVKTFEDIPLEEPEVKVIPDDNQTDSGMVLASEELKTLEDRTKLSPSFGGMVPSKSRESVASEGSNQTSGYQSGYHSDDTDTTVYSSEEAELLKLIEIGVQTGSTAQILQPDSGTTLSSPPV
Chain of Mast/stem cell growth factor receptor Kit (P10721 whole entry): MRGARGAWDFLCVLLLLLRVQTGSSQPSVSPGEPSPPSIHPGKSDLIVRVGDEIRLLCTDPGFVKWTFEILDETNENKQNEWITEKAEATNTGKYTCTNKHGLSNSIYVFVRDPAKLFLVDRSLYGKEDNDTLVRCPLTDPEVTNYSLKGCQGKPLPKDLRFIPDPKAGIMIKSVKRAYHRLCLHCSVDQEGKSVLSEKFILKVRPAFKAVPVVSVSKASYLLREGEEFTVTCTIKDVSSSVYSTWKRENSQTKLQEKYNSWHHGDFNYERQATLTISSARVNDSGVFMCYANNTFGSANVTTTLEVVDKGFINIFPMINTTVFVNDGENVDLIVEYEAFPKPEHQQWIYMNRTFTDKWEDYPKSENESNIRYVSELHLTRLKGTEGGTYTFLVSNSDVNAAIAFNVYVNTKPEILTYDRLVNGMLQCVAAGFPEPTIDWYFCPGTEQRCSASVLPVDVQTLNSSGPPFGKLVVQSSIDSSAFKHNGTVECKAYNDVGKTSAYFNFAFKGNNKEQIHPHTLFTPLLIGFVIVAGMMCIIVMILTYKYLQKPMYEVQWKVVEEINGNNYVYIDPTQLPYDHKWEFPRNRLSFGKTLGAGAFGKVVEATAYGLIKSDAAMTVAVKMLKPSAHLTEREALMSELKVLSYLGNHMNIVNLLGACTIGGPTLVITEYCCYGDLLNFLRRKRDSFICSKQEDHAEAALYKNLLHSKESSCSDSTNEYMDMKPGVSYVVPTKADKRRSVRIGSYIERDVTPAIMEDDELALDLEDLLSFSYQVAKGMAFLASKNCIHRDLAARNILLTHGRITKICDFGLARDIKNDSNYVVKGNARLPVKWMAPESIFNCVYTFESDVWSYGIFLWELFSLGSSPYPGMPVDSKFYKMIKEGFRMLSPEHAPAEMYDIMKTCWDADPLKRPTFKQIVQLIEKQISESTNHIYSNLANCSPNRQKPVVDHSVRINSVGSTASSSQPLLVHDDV
Chain of RAC-alpha serine/threonine-protein kinase (P31749 whole entry): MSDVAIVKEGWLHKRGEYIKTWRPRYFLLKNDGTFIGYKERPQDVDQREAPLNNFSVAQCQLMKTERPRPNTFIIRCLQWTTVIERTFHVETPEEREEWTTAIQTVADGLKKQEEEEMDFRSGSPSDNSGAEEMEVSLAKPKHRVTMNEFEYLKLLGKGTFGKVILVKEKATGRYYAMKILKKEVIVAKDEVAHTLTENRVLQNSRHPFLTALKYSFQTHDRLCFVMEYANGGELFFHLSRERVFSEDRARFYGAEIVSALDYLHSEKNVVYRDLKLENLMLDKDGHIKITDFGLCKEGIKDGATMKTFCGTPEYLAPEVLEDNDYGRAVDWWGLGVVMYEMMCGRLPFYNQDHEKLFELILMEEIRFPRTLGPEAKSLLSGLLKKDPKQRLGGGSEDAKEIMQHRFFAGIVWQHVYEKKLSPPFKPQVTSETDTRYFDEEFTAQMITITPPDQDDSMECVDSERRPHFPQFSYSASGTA
Chain of Serine/threonine-protein kinase PAK 4 (O96013 whole entry): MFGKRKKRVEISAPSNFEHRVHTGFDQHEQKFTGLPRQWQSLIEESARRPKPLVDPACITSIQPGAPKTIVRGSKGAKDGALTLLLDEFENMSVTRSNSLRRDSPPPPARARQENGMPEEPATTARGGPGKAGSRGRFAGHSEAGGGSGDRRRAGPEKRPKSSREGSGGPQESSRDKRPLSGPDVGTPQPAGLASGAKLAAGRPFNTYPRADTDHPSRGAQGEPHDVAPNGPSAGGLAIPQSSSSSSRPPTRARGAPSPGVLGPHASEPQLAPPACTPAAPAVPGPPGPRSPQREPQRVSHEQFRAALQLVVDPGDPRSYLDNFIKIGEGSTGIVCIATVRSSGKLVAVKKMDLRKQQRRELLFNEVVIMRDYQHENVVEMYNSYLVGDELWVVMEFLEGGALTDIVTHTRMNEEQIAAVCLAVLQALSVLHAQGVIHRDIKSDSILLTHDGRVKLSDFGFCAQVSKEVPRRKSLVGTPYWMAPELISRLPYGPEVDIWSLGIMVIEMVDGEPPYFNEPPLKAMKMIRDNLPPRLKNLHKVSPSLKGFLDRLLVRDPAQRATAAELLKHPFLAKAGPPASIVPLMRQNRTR
Chain of Vascular endothelial growth factor receptor 2 (Mus musculus, UniProt P35918) (P35918 whole entry): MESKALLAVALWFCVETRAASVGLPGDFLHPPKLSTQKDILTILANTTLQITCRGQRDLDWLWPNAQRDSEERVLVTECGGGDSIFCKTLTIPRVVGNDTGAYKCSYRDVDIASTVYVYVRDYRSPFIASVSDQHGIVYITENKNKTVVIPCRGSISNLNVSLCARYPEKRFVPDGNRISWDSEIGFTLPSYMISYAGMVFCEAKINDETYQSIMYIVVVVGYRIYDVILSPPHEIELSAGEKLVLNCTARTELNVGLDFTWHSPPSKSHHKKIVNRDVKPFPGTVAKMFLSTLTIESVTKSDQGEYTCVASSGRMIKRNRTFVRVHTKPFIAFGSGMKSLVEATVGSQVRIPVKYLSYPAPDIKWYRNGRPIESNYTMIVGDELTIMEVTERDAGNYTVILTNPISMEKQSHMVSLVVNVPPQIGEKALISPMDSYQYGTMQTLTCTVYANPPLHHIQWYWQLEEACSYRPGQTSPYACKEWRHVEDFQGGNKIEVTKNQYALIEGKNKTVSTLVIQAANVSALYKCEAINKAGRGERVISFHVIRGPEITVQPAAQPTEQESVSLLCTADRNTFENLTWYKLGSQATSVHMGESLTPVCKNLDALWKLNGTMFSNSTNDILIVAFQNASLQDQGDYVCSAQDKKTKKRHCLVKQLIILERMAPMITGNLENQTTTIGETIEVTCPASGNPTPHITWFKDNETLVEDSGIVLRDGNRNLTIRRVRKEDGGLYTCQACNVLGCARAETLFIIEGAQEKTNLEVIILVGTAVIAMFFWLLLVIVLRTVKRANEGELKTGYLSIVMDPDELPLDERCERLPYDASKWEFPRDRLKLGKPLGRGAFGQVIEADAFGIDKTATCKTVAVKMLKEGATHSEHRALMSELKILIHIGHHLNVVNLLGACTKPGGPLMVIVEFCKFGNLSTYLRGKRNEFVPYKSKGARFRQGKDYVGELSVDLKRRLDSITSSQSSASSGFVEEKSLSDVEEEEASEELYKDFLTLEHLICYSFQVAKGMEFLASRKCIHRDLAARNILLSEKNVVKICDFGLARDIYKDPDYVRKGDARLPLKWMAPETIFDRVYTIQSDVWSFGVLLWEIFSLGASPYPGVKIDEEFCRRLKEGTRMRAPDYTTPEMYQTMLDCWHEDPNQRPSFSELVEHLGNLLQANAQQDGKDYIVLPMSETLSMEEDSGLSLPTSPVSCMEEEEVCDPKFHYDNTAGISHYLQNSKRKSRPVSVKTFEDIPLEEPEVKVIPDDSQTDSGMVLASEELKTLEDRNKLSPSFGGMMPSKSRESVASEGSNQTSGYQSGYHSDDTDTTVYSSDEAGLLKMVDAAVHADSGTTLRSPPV

Regarding `Nc1ncnc2c1N=C(c1ccc(NC(=O)Nc3cccc(C(F)(F)F)c3)cc1)CCN2`, the IC50 (in general, the midpoint of a concentration-inhibition curve) worked out at 0.003 µM in [1], 0.013 µM in [2] and 0.002 µM in test [3].
As for `Nc1ncnc2c1N=C(c1ccc(NC(=O)Nc3ccc(C(F)(F)F)cc3)cc1)CCN2`, the 50% inhibitory concentration (IC50) in [1] was 0.11 µM; in test [2], 2.44 µM; in [3], 0.009 µM; in test [4] it was 0.035 µM.
As for `Nc1ncnc2c1N=C(c1ccc(NC(=O)Nc3ccccc3)cc1)CCN2`, in test [1], the IC50 turned out to be 0.951 µM.
Regarding `Nc1ncnc2c1N=C(c1ccc(NC(=O)Nc3cccc(Cl)c3)cc1)CCN2`, the IC50 in test [1] is 0.019 µM; in test [2] it was 0.05 µM; in test [3], 0.006 µM; in [4], 0.018 µM.
Turning to `Nc1ncnc2c1N=C(c1ccccc1)CCN2`, the IC50 in test [5] was 3 µM; in test [6], more than 100 µM; in test [7], more than 100 µM; in [8] it was 4 µM; in test [9] it was 92 µM.
In the case of `Nc1ncnc2c1N=C(c1cccc(NC(=O)Nc3cccc(C(F)(F)F)c3)c1)CCN2`, the IC50 in [2] was 0.79 µM; in test [4], 0.091 µM.
`Nc1ncnc2c1N=C(c1ccc(Cl)cc1)CCN2`: the IC50 in [5] is 3 µM; in [6], more than 100 µM; in test [7] it was more than 100 µM; in test [8] it was more than 100 µM; in test [9], more than 100 µM.
For `Nc1ncnc2c1N=C(c1cccc(NC(=O)Nc3ccccc3)c1)CCN2`, the IC50 was determined as 0.888 µM in test [1], 2.7 µM in [3] and 3.02 µM in [4].
For `Cc1ccc(F)c(NC(=O)Nc2ccc(C3=Nc4c(N)ncnc4NCC3)cc2)c1`, the IC50 is 0.065 µM in test [1], 0.311 µM in test [2], 0.013 µM in [3] and 0.037 µM in test [4].
With `Nc1ncnc2c1N=C(c1ccc(NC(=O)Nc3cc(C(F)(F)F)ccc3F)cc1)CCN2`, the IC50 in [1] stood at 0.004 µM; in test [2], 0.121 µM.
Regarding `Nc1ncnc2c1N=C(c1cccc(Cl)c1)CCN2`, the IC50 in test [5] was 0.6 µM; in test [6], more than 100 µM; in test [7], more than 100 µM; in test [9], more than 100 µM. In addition, the inhibition (commonly the relative decrease from the control value, in per cent) in [10] stood at 64%.
Consider `Nc1nc(N)c2c(n1)NCCC(c1ccccc1)=N2`, for which the IC50 is 35 µM in test [5]; more than 100 µM in [6]; more than 100 µM in [7]; more than 100 µM in test [8]; more than 100 µM in [9].
`Cc1cccc(C2=Nc3c(N)ncnc3NCC2)c1`: the IC50 is 3 µM in test [5]; 50 µM in test [6]; more than 100 µM in test [7]; 12 µM in test [8]; more than 100 µM in [9].
In the case of `Nc1ncnc2c1N=C(c1ccc(NC(=O)Nc3ccc(F)c(C(F)(F)F)c3)cc1)CCN2`, the IC50 turned out to be 0.005 µM in test [1], 0.345 µM in test [2], 0.007 µM in test [3] and 0.022 µM in test [4].
For the compound `Cc1ccc(C2=Nc3c(N)ncnc3NCC2)cc1NC(=O)Nc1cccc(C(F)(F)F)c1`, the IC50 in [2] stood at 0.052 µM; in test [4], 0.012 µM.
As to `Nc1nc(N)c2c(n1)NCCC(c1ccc(NC(=O)Nc3ccccc3)cc1)=N2`, the IC50 in test [1] is 2.86 µM; in test [3], 2.86 µM; in [4], more than 13 µM.
In the case of `Cc1ccc(C2=Nc3c(N)ncnc3NCC2)cc1`, the IC50 is 4 µM in test [5]; more than 100 µM in test [6]; more than 100 µM in test [7]; more than 100 µM in test [8]; more than 100 µM in test [9].
In the case of `Nc1nc(N)c2c(n1)NCCC(c1cccc(Cl)c1)=N2`, the IC50 in test [5] is 21 µM; in [6], more than 100 µM; in [7], more than 100 µM; in test [9], more than 100 µM.
As for `Nc1ncnc2c1N=C(c1ccc(NC(=O)Nc3cccc(C(F)(F)F)c3F)cc1)CCN2`, the IC50 in test [1] worked out at 0.049 µM; in test [2] it was 1.52 µM; in test [3] it was 0.003 µM; in test [4], 0.028 µM.
For `Nc1ncnc2c1N=C(c1ccc(NC(=O)Nc3ccc(Cl)c(C(F)(F)F)c3)cc1)CCN2`, the IC50 in [1] turned out to be 0.006 µM; in test [2] it was 0.049 µM; in test [3] it was 0.016 µM; in [4], 0.05 µM.
As to `Nc1nc(N)c2c(n1)NCCC(c1ccc(Cl)cc1)=N2`, the IC50 is 9 µM in test [5]; more than 100 µM in test [6]; more than 100 µM in [7]; more than 100 µM in test [8]; more than 100 µM in test [9].
